Assay results as given in patent US8338410B2, “Neuroprotective compounds and pharmaceutical compositions comprising them” (Biocodex, priority 2005, dated 2012).

Experiments:
[1] = test system: cortical neurones in the presence of astrocytes in culture; assay: Prior cytotoxicity, microscopic observation after 48 hours; assay type: cell-based; settings: 100 μM, 48 hours incubation
Description: • Cell type: Initial culture of cortical neurones from 14 day rat embryos and initial culture of cortical astrocytes from newborn rats. • Culture medium: DMEM-Ham F12 (Invitrogen 21331020) • B27 2% (invitrogen 17504044) • L-glutamine 2 mM (Invitrogen 25030024) • Penicillin 50 UI/ml—Streptomycin 50 μg/ml (Invitrogen 15070063) • Nerve Growth Factor 10 ng/ml (NGF, Invitrogen 13290.010) • Survival medium: MEM (Invitrogen 21090022) • L-glutamine 2 mM (Invitrogen 25030024) • Penicillin 50 UI/ml—Streptomycin 50 μg/ml (Invitrogen 15070063) • Supplement N2 (Invitrogen 17502-048) 1.2 Prior Cytotoxicity • Platelets: 96 wells • Culture time: 8 days • Cells/well: cortical neurones+astrocytes • Product range: from 100 μM then ratio 3 • Replicates: 3 • Cell/product contact: 48 hours • Evaluation parameters: microscopic observation and MTT hydrolysis. • MTT: 3-(4,5-dimethylthiozol-2-yl)-2,5-diphenyltetrazolium bromide 1.3 Treatment and Analysis of the Network of Extensions Marked with Antineurofilament Antibody
A first experiment was carried out (conventional test used to measure the level of cell survival) in order to investigate the cytotoxicity of etifoxine in relation to cortical neurones in the presence of astrocytes in culture and thus to determine the maximum non-toxic concentration of etifoxine.

[2] = test system: mice subjected to hypobaric hypoxia; assay: Hypobaric hypoxia in mice (survival time); assay type: in vivo, NMRI male mice; settings: mice; for Percentage variation / Survival time in seconds (m ± sem): hypobaric hypoxia 160 mmHg
Description: 1.1 Hypobaric Hypoxia in Mice
NMRI male mice from Janvier weighing between 25 and 30 grams were used after acclimatisation in the animal house for at least 7 days (t°=22±2° C.; humidity 50±20%; feed UAR “A04” SAFE (Augy, France) and tap water ad libitum; 12 hour night and day cycle (light from 7 a.m. to 7 p.m.).
The unfasting […] were distributed at random into lots of 10.
The protocol of Nakaniski et al. (1973) Life Sciences, 13, 467-474 was adapted for the purposes of the model.
Each mouse was placed in a dessicator (hermetically sealed enclosure) in which atmospheric pressure was reduced from 760 to 160 mmHg using a water pump. This pressure reduction was carried out in one minute and caused death of the control animals in approximately 1 minute.
The survival time of the animal, which corresponded to the difference between the time to death of the mouse assessed by respiratory arrest less the time required to induce the hypoxia was then noted.
The products under investigation were administered intraperitoneally (i.p.) (0.1 ml/10 g), 30 minutes before inducing hypobaric hypoxia, or orally (0.1 ml/10 g p.o.) 1 hour before hypoxia.
Etifoxine hydrochloride was dissolved in 1% Tween 80. The potassium cyanide (Merck) was dissolved in 0.9% NaCl.
The statistical test used was a one-factor analysis of variance to determine the treated groups, which differed from the control group receiving the vehicle, at a threshold of 5%.

[3] = test system: mice subjected to histotoxic hypoxia induced by potassium cyanide; assay: KCN hypoxia (i.p.) in mice (survival time); assay type: in vivo, CD1 male mice; settings: KCN 15 mg/kg i.p.
[4] = compound i.p. dose 3, first i.p. series
[5] = compound i.p. dose 10, first i.p. series
[6] = compound i.p. dose 30, first i.p. series (control 106 ± 9)
[7] = compound i.p. dose 30, second i.p. series (control 91 ± 4)
[8] = compound i.p. dose 50, second i.p. series
[9] = compound i.p. dose 75, second i.p. series

For `CCNC1=Nc2ccc(Cl)cc2C(C)(c2ccccc2)O1.Cl` (stereo not shown) [etifoxine, 6-chloro-2-ethylamino-4-methyl-4-phenyl-4H-[3,1]benzoxazine hydrochloride], the “astrocyte mortality, visual examination with a microscope” value [1] was “astrocyte mortality was observed”, the Percentage variation ([2]; i.p. 3 mg/kg) was “+12%” and the “Survival time in seconds (m ± sem)” value ([2]; i.p. 3 mg/kg) was 64.5 ± 3.4 s. The Percentage variation ([2]; i.p. 10 mg/kg) was “+15%”, the “Survival time in seconds (m ± sem)” value ([2]; i.p. 10 mg/kg) was 66.1 ± 3.0 s and the Percentage variation ([2]; i.p. 30 mg/kg) was “+42%”. The “Survival time in seconds (m ± sem)” value ([2]; i.p. 30 mg/kg) was 81.8 ± 4.6 s, the Percentage variation ([2]; i.p. 50 mg/kg) was “+141%” and the “Survival time in seconds (m ± sem)” value ([2]; i.p. 50 mg/kg) was 138.5 ± 23.3 s. For the same molecule, the Percentage variation ([2]; i.p. 75 mg/kg) was “+130%”, the “Survival time in seconds (m ± sem)” value ([2]; i.p. 75 mg/kg) was 132.0 ± 21.6 s and the Percentage variation ([2]; p.o. 30 mg/kg) was “+47%”. For the same molecule, the “Survival time in seconds (m ± sem)” value ([2]; p.o. 30 mg/kg) was 81.5 ± 4.5 s, the Percentage variation ([2]; p.o. 100 mg/kg) was “+72%” and the “Survival time in seconds (m ± sem)” value ([2]; p.o. 100 mg/kg) was 95.3 ± 5.6 s. For the same molecule, the Percentage variation ([2]; p.o. 200 mg/kg) was “+79%”, the “Survival time in seconds (m ± sem)” value ([2]; p.o. 200 mg/kg) was 99.5 ± 2.7 s and the Percentage variation ([2]; p.o. 300 mg/kg) was “+108%”. For the same molecule, the “Survival time in seconds (m ± sem)” value ([2]; p.o. 300 mg/kg) was 115.5 ± 8.6 s, the time to death ([2]; hypobaric hypoxia, over 30 mg/1 kg i.p. or p.o.) was “significantly increased the time to death” and the Percentage variation [3, 4] was “+15%”. The “Survival time in seconds (m ± sem)” value [3, 4] was 122 ± 7 s, the Percentage variation [3, 5] was “+7%” and the “Survival time in seconds (m ± sem)” value [3, 5] was 113 ± 5 s. The Percentage variation [3, 6] was “+22%”, the “Survival time in seconds (m ± sem)” value [3, 6] was 129 ± 11 s and the Percentage variation [3, 7] was “+19%”. For the same molecule, the “Survival time in seconds (m ± sem)” value [3, 7] was 108 ± 4 s, the Percentage variation [3, 8] was “+36%” and the “Survival time in seconds (m ± sem)” value [3, 8] was 124 ± 8 s. For the same molecule, the Percentage variation [3, 9] was “+46%”, the “Survival time in seconds (m ± sem)” value [3, 9] was 133 ± 6 s and the Percentage variation ([3]; compound p.o. dose 100) was −13%. For the same molecule, the “Survival time in seconds (m ± sem)” value ([3]; compound p.o. dose 100) was 94 ± 6 s, the Percentage variation ([3]; compound p.o. dose 200) was “+14%” and the “Survival time in seconds (m ± sem)” value ([3]; compound p.o. dose 200) was 123 ± 12 s. The Percentage variation ([3]; compound p.o. dose 300) was −6%, the “Survival time in seconds (m ± sem)” value ([3]; compound p.o. dose 300) was 102 ± 7 s and the survival time ([3]; oral administration) was “did not significantly affect survival time”. For the same molecule, the time to death ([3]; over 50 mg/kg i.p.) was “significantly increased the time to death”.
